Data as given in US6368529B1, “Lignocellulosic composite” (U.S. Borax Inc., priority 2000, dated 2002).

Tests used:
[1] = Borate content of composite after two weeks water leaching; format: physicochemical; settings: leached two weeks
Experimental: (§1) The panels to be leached (4.5″×4.5″) were edge sealed with an epoxy sealant and leached for two weeks. Leaching began with pressure treatment of the specimens with water for 30 minutes under vacuum and one hour under pressure. The specimens were removed from the pressure treatment chamber and the residual water was changed after two hours, then daily for the remainder of the leaching period. Afterward, they were trimmed to remove the sealed edges and cut into analytical/soil block test samples. Unleached and leached analytical/soil block samples for each board type were separately randomized. Fifteen were analyzed for borate content and ten were retained for the soil block decay test.

[2] = test system: Gloeophyllum trabeum (ATCC 11539); assay: Soil block decay test (AWPA E10-87), brown rot; format: cell-based
Excerpt: (§2) Wood flakeboard was manufactured by conventional wood processing techniques, incorporating various borates at a range of concentrations, from 0.5 to 2.0% boric acid equivalent (BAE). Boric acid (H3BO3) equivalent is a commonly used convention for comparing various borates on an equivalent contained-boron basis. For each borate/loading combination, fifteen pounds of aspen (Populus tremuloides) furnish having an average particle size of about 2.5×0.75×0.025 inches, was blended with 0.75 pounds (5%) Rubinate 1840 (product of ICI), a polymeric methylene diphenyl diisocyanate adhesive, 0.11 pounds (0.75%) of Cascowax EW 403HS (product of Borden) and various concentrations of nine test borates. For each borate/loading combination, three 18″×18″ composite boards of 0.5 inch thickness were formed by pressing for 210 seconds at (180 seconds pressure, 30 seconds pressure release) at 204.5° C. (the pressure was kept in excess of 6000 psi during the pressure cycle). Each board was trimmed to 15″×15″ and cut to produce internal bond and analytical/soil block specimens for evaluation. Replicates were cut from the inner portion of the boards. Four internal bond, two leaching panels and twenty analytical/soil block specimens were cut from each board.
as §1
(§3) The soil block test was conducted in accordance with AWPA E10-87, with the exception that soil block dimensions were 1.0″×1.0″×0.5″. The fungi used were Gloeophyllum trabeum (ATCC 11539) for brown rot test and Trametes versicolor (MAD 697) for white rot test. An untreated composite control was run both unleached and leached. Solid southern yellow pine and birch were also run as unleashed controls against G. trabeum and T. versicolor, respectively as a test of fungal vigor.

[3] = test system: Trametes versicolor (MAD 697); assay: Soil block decay test (AWPA E10-87), white rot; format: cell-based
Excerpt: as §2, §1, §3

[4] = Bulk solids flow testing, J. R. Johanson Indicizer System; format: physicochemical
Excerpt: Bulk solids flow testing was done using the J. R. Johanson Indicizer System, including a Hang-up Indicizer and Hopper Indicizer, manufactured by J R Johanson, Inc. 712 Fiero Lane #37, San Luis Obispo, Calif. 93401. The test procedures are described in detail in their company literature (BULK SOLIDS INDICES TESTING, Hang-up Indicizer™ Instruction Manual ©JR Johanson, Inc. 1991 and BULK SOLIDS INDICES TESTING, Hopper Indicizer™ Instruction Manual ©JR Johanson, Inc. 1991). The results are presented in the following Table 3 as the Arching Index, Ratholing Index, Hopper Index and Chute Index, which are the average of several tests (3-6). The meaning and usefulness of these flow indices in evaluating the flow properties of bulk solids are also described in literature from JR Johanson, Inc., including Binside Scoop™, Vol. 7, No. 2, Fall 1994, Binside Scoop™, Vol. 8, No. 3, Winter 1995, and “Bulk solids Flow Indices—A Simplified Evaluation system”, by Jerry R. Johanson, ©JR Johanson, 1991.
Arching Index—A tendency of a cohesive material is to plug up the opening of a bin by forming an “arch” over the discharge opening. The arching index is given as a multiple of the discharge opening, so less than 1 is necessary for free flow. Numbers greater than 1 reflect a need to enlarge the opening.
Ratholing Index—A tendency of a cohesive material is to hang up on the sides of a bin while an open hole forms in the center and flow ceases. Rathole indices are also given as a multiple of the discharge opening and a number of less than 1 is necessary for free flow. Numbers greater than 1 mean the bins should be redesigned.
Hopper Index—The maximum angle, measured in degrees from the vertical, that is required for the conical portion of a hopper in order to produce reliable mass flow. A larger number is better.
Chute Index—The minimum angle, measured in degrees from horizontal, required for flow down a chute and to prevent material buildup at impact areas. A smaller number is better. Chute indices may often be close to the angle of repose.
Both hopper and chute indices measurements involve friction over a specified surface and measurements are made using substrates of the material of construction. The substrates used for these tests are 304-2B Stainless Steel, aged carbon steel and Tivar UHMWPE (ultra high molecular weight polyethylene) plastic.

[5] = leached two weeks, target loading 0.5% BAE (0.09% B)
[6] = leached two weeks, target loading 1.0% BAE (0.17% B)
[7] = leached two weeks, target loading 2.0% BAE (0.35% B)
[8] = unleached aspen flakeboard, target loading 0.5% BAE (0.09% B)
[9] = unleached aspen flakeboard, target loading 1.0% BAE (0.17% B)
[10] = unleached aspen flakeboard, target loading 2.0% BAE (0.35% B)
[11] = multiple of the discharge opening, less than 1 necessary for free flow, average of 3-6 tests

Nobleite
Assay % B ([1]; target loading 0.5% BAE (0.09% B)): 0.03 % B | Assay % B ([1]; target loading 1.0% BAE (0.17% B)): 0.06 % B | Assay % B ([1]; target loading 2.0% BAE (0.35% B)): 0.09 % B | Mean % Wt. Loss G. trabeum [2, 5]: 5.4% | Mean % Wt. Loss G. trabeum [2, 6]: 1.4% | Mean % Wt. Loss G. trabeum [2, 7]: 1.5% | Mean % Wt. Loss G. trabeum [2, 8]: 1.1% | Mean % Wt. Loss G. trabeum [2, 9]: 1.0% | Mean % Wt. Loss G. trabeum [2, 10]: 1.4% | Mean % Wt. Loss T. versicolor [3, 5]: 27.6% | Mean % Wt. Loss T. versicolor [3, 6]: 11.6% | Mean % Wt. Loss T. versicolor [3, 7]: 10.1% | Mean % Wt. Loss T. versicolor [3, 8]: 5.3% | Mean % Wt. Loss T. versicolor [3, 9]: 3.6% | Mean % Wt. Loss T. versicolor [3, 10]: 2.6% | Hopper Index Stainless Steel ([4]; 304-2B Stainless Steel, maximum angle from the vertical, larger is better): 16 degrees | Chute Index Stainless Steel ([4]; 304-2B Stainless Steel, minimum angle from horizontal, smaller is better): 45 degrees | Hopper Index Plastic ([4]; Tivar UHMWPE plastic, maximum angle from the vertical, larger is better): 17 degrees | Chute Index Plastic ([4]; Tivar UHMWPE plastic, minimum angle from horizontal, smaller is better): 41 degrees | Hopper Index Carbon Steel ([4]; aged carbon steel, maximum angle from the vertical, larger is better): 14 degrees | Chute Index Carbon Steel ([4]; aged carbon steel, minimum angle from horizontal, smaller is better): 47 degrees | Flow properties, summary ([4]; compared with zinc borate, Colemanite F and Colemanite, Glass Grade): superior flow properties | Arching Index [4, 11]: 0.2 | Ratholing Index [4, 11]: 0.5
